≈ marks a conversion by molar mass, not a printed value. Where two headings read alike, the source gives them in different places.
Key:
Type in all cases: cell-based
Proteus mirabilis = experiment: Minimum inhibition concentration (MIC), Table 2; set-up: Minimum inhibition concentration (MIC): unit not given here; conditions: for MIC: read-out: Minimum inhibition concentration (MIC)
Text: Minimum inhibition concentration (MIC) in /ml

Streptococcus D = experiment: Minimum inhibition concentration (MIC), Table 4; conditions: for MIC: Streptococcus, read-out: Minimum inhibition concentration (MIC)
Text: (§1) Minimum inhibition concentration (MIC) in γ/ml

[1] = system: Staphylococcus aureus 285; experiment: Minimum inhibition concentration (MIC), Table 1; conditions: for MIC: Staphylococcus aureus, 285, Germ: Staphylococcus aureus 285, read-out: Minimum inhibition concentration (MIC)
Text: as §1
Germ: Staphylococcus aureus 285

Streptococcus pyogenes A = experiment: Minimum inhibition concentration (MIC), Table 3; conditions: for MIC: read-out: Minimum inhibition concentration MIC
Text: Minimum inhibition concentration MIC in γ/ml
Germ: Streptococcus pyogenes A

[2] = system: Staphylococcus aureus SG 511; experiment: Minimum inhibition concentration (MIC), Table 5; conditions: Staphylococcus aureus
Text: as §1
Germ: Staphylococcus aureus SG 511

[3] = SG511, Germ: Staphylococcus aureus SG 511, read-out: Minimum inhibition concentration (MIC)

| Structure (SMILES) | MIC (Proteus mirabilis; Germ: Proteus mirabilis) [µg/mL] | MIC (Streptococcus D; Germ: Streptococcus D) [µg/mL] | MIC [2, 3] [µg/mL] | MIC [1] [µg/mL] | MIC (Streptococcus pyogenes A; Germ: Streptococcus pyogenes A) [µg/mL] | other results |
| --- | --- | --- | --- | --- | --- | --- |
| O=C(Cc1ccc(C2=NCCCN2)cc1)NC1C(=O)N2C(C(=O)O)=C(CSc3nnc[nH]3)CSC12 (stereo not shown) [Example 94, 3-[(triazole-2-yl)-thiomethyl]-7-[4-(1,4,5,6-tetrahydro-pyrimide-2-yl)-phenylacetamido]-Δ3-cephem-4-carboxylic acid] | – | – | – | – | – | Minimum inhibition concentration (MIC) (Proteus mirabilis; Germ: Proteus mirabilis): 25; Minimum inhibition concentration (MIC) (Streptococcus D; Germ: Streptococcus D): 10 to 50 µg/mL; Minimum inhibition concentration (MIC) ([1]; Germ: Staphylococcus aureus 285): 1.6 to 2.5 µg/mL; Minimum inhibition concentration (MIC) (Streptococcus pyogenes A; Germ: Streptococcus pyogenes A): 0.008 to 0.0156 µg/mL |
| CC1=C(C(=O)O)N2C(=O)[C@@H](NC(=O)[C@H](N)c3ccccc3)[C@H]2SC1 [Cephalexin, reference compound] | – | – | – | – | – | MIC (Proteus mirabilis; Proteus mirabilis): 25 µg/mL (≈ 72 µM); MIC (Streptococcus D): 100 µg/mL (≈ 288 µM); MIC ([2]; SG511, read-out: Minimum inhibition concentration (MIC)): 1.25 µg/mL (≈ 3.6 µM); MIC (Streptococcus pyogenes A; Streptococcus pyogenes): 0.156 µg/mL (≈ 0.449 µM) |
| N=C(N)c1ccc(CC(=O)NC2C(=O)N3C(C(=O)O)=C(CSc4nncs4)CSC23)s1 (stereo not shown) [Example 3, 3-[(1,3,4-thiadiazole-2-yl)-thiomethyl]-7-(5-amidinothienyl-acetamido)-Δ3-cephem-4-ccarboxylic acid] | 3.1 to 12.5 (≈ 6.24 to 25.2 µM) | 10 to 50 (≈ 20.1 to 101 µM) | 0.0625 to 0.078 (≈ 0.126 to 0.157 µM) | 0.156 to 0.391 (≈ 0.314 to 0.787 µM) | 0.008 to 0.0156 (≈ 0.0161 to 0.0314 µM) | – |
| O=C(Cc1ccc(C2=NCCN2)cc1)NC1C(=O)N2C(C(=O)O)=C(CSc3nncs3)CSC12 (stereo not shown) [Example 70, 3-[(1,3,4-thiadiazole-2-yl)-thiomethyl]-7-[4-(imidazoline-2-yl)phenylacetamido]-Δ 3-cephem-4-carboxylic acid] | 3.1 to 12.5 (≈ 6 to 24.2 µM) | 0.196 to 6.25 (≈ 0.379 to 12.1 µM) | 0.0625 to 0.078 (≈ 0.121 to 0.151 µM) | 0.156 to 0.391 (≈ 0.302 to 0.757 µM) | 0.000391 to 0.0078 (≈ 0.000757 to 0.0151 µM) | – |
| Cc1nnc(SCC2=C(C(=O)O)N3C(=O)[C@@H](NC(=O)Cn4cnnn4)[C@H]3SC2)s1 [Cephazolin-Na, reference compound] | 25 (≈ 55 µM) | – | 0.25 (≈ 0.55 µM) | – | 0.03 (≈ 0.066 µM) | – |
| CCCc1nnc(SCC2=C(C(=O)O)N3C(=O)C(NC(=O)Cc4ccc(C5=NCCN5)cc4)C3SC2)s1 (stereo not shown) [Example 53] | 25 (≈ 44.7 µM) | 0.196 to 6.25 (≈ 0.351 to 11.2 µM) | 0.0625 to 0.078 (≈ 0.112 to 0.14 µM) | 0.5 to 1.25 (≈ 0.895 to 2.24 µM) | 0.000391 to 0.0078 (≈ 0.0007 to 0.014 µM) | – |
| O=C(Cc1ccc(C2=NCCCN2)cc1)NC1C(=O)N2C(C(=O)O)=C(CSc3nncs3)CSC12 (stereo not shown) [Example 19, 3-[(1,3,4-thiadiazole-2-yl)-thiomethyl]-7-[4-(1,4,5,6-tetrahydropyrimide-2-yl)-phenylacetamido]-Δ 3-cephem-4-carboxylic acid] | 3.1 to 12.5 (≈ 5.84 to 23.6 µM) | 10 to 50 (≈ 18.8 to 94.2 µM) | – | 0.5 to 1.25 (≈ 0.942 to 2.36 µM) | 0.000391 to 0.0078 (≈ 0.000737 to 0.0147 µM) | – |
| O=C(Cc1ccc(C2=NCCCN2)cc1)NC1C(=O)N2C(C(=O)O)=C(CSc3ccncc3)CSC12 (stereo not shown) [Example 97, 3-(4-pyridyl-thiomethyl)-7-[4-(1,4,5,6-tetrahydropyrimide-2-yl)-phenylacetamido]-Δ3-cephem-4-carboxylic acid] | 25 (≈ 47.7 µM) | 10 to 50 (≈ 19.1 to 95.5 µM) | – | 1.6 to 2.5 (≈ 3.06 to 4.77 µM) | 0.000391 to 0.0078 (≈ 0.000747 to 0.0149 µM) | – |
| Cc1nnc(SCC2=C(C(=O)O)N3C(=O)C(NC(=O)Cc4ccc(C(=N)N)s4)C3SC2)s1 (stereo not shown) [Example 2, 3-[(5-methyl-1,3,4-thiadiazole-2-yl)-thiomethyl]-7-(5-amidinothienylacetamido)-Δ-3-cephem-4-carboxylic acid] | 25 (≈ 49 µM) | 10 to 50 (≈ 19.6 to 97.9 µM) | – | 0.156 to 0.391 (≈ 0.305 to 0.766 µM) | 0.008 to 0.0156 (≈ 0.0157 to 0.0305 µM) | – |
| CCCc1nnc(SCC2=C(C(=O)O)N3C(=O)C(NC(=O)Cc4ccc(C(=N)N)cc4)C3SC2)o1 (stereo not shown) [Example 44, 3-[(5-n-propyl-1,3,4-oxadiazole-2-yl)-thiomethyl]-7-(4-amidino-phenylacetamido)-Δ 3-cephem-4-carboxylic acid] | 3.1 to 12.5 (≈ 6 to 24.2 µM) | 10 to 50 (≈ 19.4 to 96.8 µM) | – | 0.156 to 0.391 (≈ 0.302 to 0.757 µM) | 0.000391 to 0.0078 (≈ 0.000757 to 0.0151 µM) | – |
| N=C(N)c1ccc(CC(=O)NC2C(=O)N3C(C(=O)O)=C(CSc4nccs4)CSC23)cc1 (stereo not shown) [Example 4, 3-[(thiazole-2-yl)-thiomethyl]-7-(4-amidino-phenylacetamido)-Δ3-cephem-4-carboxylic acid] | 25 (≈ 51.1 µM) | 10 to 50 (≈ 20.4 to 102 µM) | 0.0196 to 0.0391 (≈ 0.04 to 0.0799 µM) | 0.156 to 0.391 (≈ 0.319 to 0.799 µM) | 0.000391 to 0.0078 (≈ 0.000799 to 0.0159 µM) | – |
| Cc1nnc(SCC2=C(C(=O)O)N3C(=O)C(NC(=O)Cc4ccc(C5=NCCCN5)cc4)C3SC2)s1 (stereo not shown) [Example 11, 3-[(5-methyl-1,3,4-thiadiazole-2-yl)-thiomethyl]-7-[4-(1,4,5,6-tetrahydro-pyrimide-2-yl)-phenylacetamido]-Δ 3-cephem-4-carboxylic acid] | 3.1 to 12.5 (≈ 5.69 to 22.9 µM) | 10 to 50 (≈ 18.4 to 91.8 µM) | – | 0.5 to 1.25 (≈ 0.918 to 2.29 µM) | 0.008 to 0.0156 (≈ 0.0147 to 0.0286 µM) | – |
| Cn1nnnc1SCC1=C(C(=O)O)N2C(=O)C(NC(=O)Cc3ccc(C(=N)N)cc3)C2SC1 (stereo not shown) [Example 89, 3-[(1-methyl-1H-tetrazole-5-yl)-thiomethyl]-7-[4-amidino-phenylacetamido]-Δ 3-cephem-4-carboxylic acid] | 3.1 to 12.5 (≈ 6.35 to 25.6 µM) | 10 to 50 (≈ 20.5 to 102 µM) | – | 0.156 to 0.391 (≈ 0.319 to 0.8 µM) | 0.008 to 0.0156 (≈ 0.0164 to 0.0319 µM) | – |
